Test results as given in US4237307A, “15-Deoxy-16-hydroxy-16-methyl-Δ19-prostaglandins of the E and F series” (American Cyanamid Company, priority 1979, dated 1980).

What was measured:
Assay type in all cases: in vivo, Guinea-Pigs
[1] = tested on: bronchospasms elicited by intravenous injections of histamine; test: Konzett procedure: bronchodilator activity against histamine-induced bronchospasm, i.v.; conditions: Cavia porcellus; guinea pig; spasmogen histamine i.v.; three logarithmic cumulative intravenous doses
Description: (§1) The bronchodilator activity for representative compounds of this invention was determined in Guinea-Pigs against bronchospasms elicited by intravenous injections of serotonin, histamine, and acetylcholine, by the Konzett procedure the details of which are those discussed by J. Lulling, P Lievens, F. El Sayed and J. Prignot, Arzeimittel-Forschung 18, 995 (1968).
(§2) In the table which follows, bronchodilator activity for representative compounds of the invention against spasmogenic agents serotonin, histamine, and acetylcholine is expressed as an ED50 determined from the results obtained with three logarithmic cumulative intravenous doses.

[2] = tested on: bronchospasms elicited by intravenous injections of serotonin; test: Konzett procedure: bronchodilator activity against serotonin-induced bronchospasm, i.v.; conditions: Cavia porcellus; guinea pig; spasmogen serotonin i.v.; three logarithmic cumulative intravenous doses
Description: as §1, §2

[3] = tested on: bronchospasms elicited by intravenous injections of acetylcholine; test: Konzett procedure: bronchodilator activity against acetylcholine-induced bronchospasm, i.v.; conditions: Cavia porcellus; guinea pig; spasmogen acetylcholine i.v.; three logarithmic cumulative intravenous doses
Description: as §1, §2

For `C=CCCC(C)(O)C/C=C/[C@H]1[C@H](O)CC(=O)[C@@H]1C/C=C\CCCC(=O)O` (relative stereo) [dl-11α,16-DIHYDROXY-9-OXO-16-METHYL-5-cis-13-trans-Δ^19 PROSTATRIENOIC ACID], the ED50 [1] was 6.4 µg/kg, the ED50 [2] was 3.8 µg/kg and the ED50 [3] was 0.0106 mg/kg.
